According to ChEMBL document CHEMBL4842346, “Improving the metabolic stability of antifungal compounds based on a scaffold hopping strategy: Design, synthesis, and structure-activity relationship studies of dihydrooxazole derivatives” (Eur J Med Chem, 2021):
Converted amounts (≈) assume the structure as drawn.

Legend:
[1] = test system: Cryptococcus neoformans; assay: Antifungal activity against Cryptococcus neoformans CGMCC2.3161 assessed as inhibition of fungal growth by NCCLS protocol based method; format: functional
[2] = test system: Candida albicans; assay: Antifungal activity against Candida albicans CPCC400523 assessed as inhibition of fungal growth by NCCLS protocol based method; format: functional
[3] = test system: Candida albicans; assay: Antifungal activity against Candida albicans SC5314 assessed as inhibition of fungal growth by NCCLS protocol based method; format: functional
[4] = Metabolic stability in human liver microsomes assessed as half life at 100 uM in the presence of NADPH measured upto 60 mins by LC-MS/MS analysis; format: ADME, Microsome
[5] = test system: Aspergillus fumigatus; assay: Antifungal activity against Aspergillus fumigatus CGMCC3.7795 assessed as inhibition of fungal growth by NCCLS protocol based method; format: functional
[6] = test system: Candida tropicalis; assay: Antifungal activity against Candida tropicalis GIM2.183 assessed as inhibition of fungal growth by NCCLS protocol based method; format: functional
[7] = test system: Candida albicans; assay: Antifungal activity against Candida albicans GIM2.194 assessed as inhibition of fungal growth by NCCLS protocol based method; format: functional
[8] = test system: Candida albicans; assay: Antifungal activity against fluconazole resistant Candida albicans CaR assessed as inhibition of fungal growth by NCCLS protocol based method; format: functional
[9] = test system: Candida albicans; assay: Antifungal activity against fluconazole and itraconazole resistant Candida albicans 17# assessed as inhibition of fungal growth by NCCLS protocol based method; format: functional
[10] = test system: Pichia kudriavzevii; assay: Antifungal activity against Candida krusei GIM2.1 assessed as inhibition of fungal growth by NCCLS protocol based method; format: functional
[11] = test system: Candida parapsilosis; assay: Antifungal activity against Candida parapsilosis GIM2.190 assessed as inhibition of fungal growth by NCCLS protocol based method; format: functional; conditions: Lodderomyces parapsilosis
[12] = test system: Cryptococcus neoformans; assay: Antifungal activity against Cryptococcus neoformans GIM2.209 assessed as inhibition of fungal growth by NCCLS protocol based method; format: functional
[13] = Metabolic stability in human plasma assessed as parent compound remaining at 100 uM measured after 120 mins by LC-MS/MS analysis; format: ADME, cell-free; conditions: 2 h
[14] = biological target: T1, Cytochrome P450 1A2 (Homo sapiens, UniProt P05177); assay: Inhibition of CYP1A2 in human liver microsome incubated for 10 mins in the presence of NADPH by LC-MS/MS analysis; format: ADME, microsomes
T1 sequence (P05177 whole entry): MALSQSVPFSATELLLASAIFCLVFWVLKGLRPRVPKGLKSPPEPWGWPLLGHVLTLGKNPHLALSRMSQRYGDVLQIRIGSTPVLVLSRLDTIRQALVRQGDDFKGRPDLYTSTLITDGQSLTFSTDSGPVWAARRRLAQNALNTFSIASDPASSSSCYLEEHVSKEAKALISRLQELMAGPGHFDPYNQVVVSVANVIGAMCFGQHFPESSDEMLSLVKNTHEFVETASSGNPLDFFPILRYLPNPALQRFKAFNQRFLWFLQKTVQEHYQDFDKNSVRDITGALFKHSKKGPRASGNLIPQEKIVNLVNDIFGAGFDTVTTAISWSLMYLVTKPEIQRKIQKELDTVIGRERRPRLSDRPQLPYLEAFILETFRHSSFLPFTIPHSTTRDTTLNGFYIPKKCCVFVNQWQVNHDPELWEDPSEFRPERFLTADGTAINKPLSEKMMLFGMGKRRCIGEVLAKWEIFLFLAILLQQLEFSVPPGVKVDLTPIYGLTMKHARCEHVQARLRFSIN

[15] = biological target: Cytochrome P450 2D6 (Homo sapiens, UniProt P10635); assay: Inhibition of CYP2D6 in human liver microsome incubated for 10 mins in the presence of NADPH by LC-MS/MS analysis; format: ADME, microsomes
Chain of Cytochrome P450 2D6 (P10635 whole entry): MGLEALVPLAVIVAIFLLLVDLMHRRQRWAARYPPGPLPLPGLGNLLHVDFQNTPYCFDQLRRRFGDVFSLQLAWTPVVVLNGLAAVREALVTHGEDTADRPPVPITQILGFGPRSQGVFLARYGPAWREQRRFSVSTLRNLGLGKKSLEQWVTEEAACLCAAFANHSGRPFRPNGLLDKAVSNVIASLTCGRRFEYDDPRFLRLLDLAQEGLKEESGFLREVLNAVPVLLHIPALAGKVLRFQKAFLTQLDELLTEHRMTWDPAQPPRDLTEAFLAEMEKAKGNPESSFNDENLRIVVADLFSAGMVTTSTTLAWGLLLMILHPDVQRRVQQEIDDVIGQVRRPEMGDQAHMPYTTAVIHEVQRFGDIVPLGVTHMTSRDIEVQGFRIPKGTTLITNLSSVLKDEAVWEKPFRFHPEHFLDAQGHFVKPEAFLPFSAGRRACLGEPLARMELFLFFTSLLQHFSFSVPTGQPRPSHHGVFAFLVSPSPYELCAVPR

[16] = Metabolic stability in human liver microsomes assessed as compound remaining at 100 uM measured after 60 mins in the absence of NADPH by LC-MS/MS analysis; format: ADME, Microsome; conditions: read-out: Stabilty
[17] = Intrinsic hepatic clearance in human liver microsomes at 100 uM in the presence of NADPH measured up to 60 mins by LC-MS/MS analysis; format: ADME, Microsome; conditions: 1 h
[18] = biological target: T2, Lanosterol 14-alpha demethylase (Candida albicans (strain SC5314 / ATCC MYA-2876) (Yeast), UniProt P10613); assay: Inhibition of Candida albicans CYP51 assessed as lanosterol level at 0.015 ug/ml measured after 18 hrs by GC-MS analysis relative to control; set-up: scale not given: the % may be the effect or the level left; conditions: at 0.015 µg/mL
T2 sequence (P10613 whole entry): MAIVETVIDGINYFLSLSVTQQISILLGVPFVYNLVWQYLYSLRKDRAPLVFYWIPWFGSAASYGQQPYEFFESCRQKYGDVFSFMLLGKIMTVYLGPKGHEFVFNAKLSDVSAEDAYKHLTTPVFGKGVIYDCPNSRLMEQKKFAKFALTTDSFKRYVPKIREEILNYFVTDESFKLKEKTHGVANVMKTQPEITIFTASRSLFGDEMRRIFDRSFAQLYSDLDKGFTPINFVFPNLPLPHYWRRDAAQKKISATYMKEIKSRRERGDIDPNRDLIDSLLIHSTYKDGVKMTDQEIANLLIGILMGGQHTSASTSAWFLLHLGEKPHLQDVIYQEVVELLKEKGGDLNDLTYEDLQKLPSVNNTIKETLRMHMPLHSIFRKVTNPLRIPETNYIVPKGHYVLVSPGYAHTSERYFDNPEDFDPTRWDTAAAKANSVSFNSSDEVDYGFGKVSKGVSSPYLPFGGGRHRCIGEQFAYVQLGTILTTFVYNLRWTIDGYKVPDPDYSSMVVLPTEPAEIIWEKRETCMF

[19] = biological target: T2, Lanosterol 14-alpha demethylase; assay: Inhibition of Candida albicans CYP51 assessed as unknown sterol level at 0.015 ug/ml measured after 18 hrs by GC-MS analysis relative to control; set-up: scale not given: the % may be the effect or the level left; conditions: at 0.015 µg/mL
[20] = Intrinsic microsomal clearance in human liver microsomes at 100 uM in the presence of NADPH measured up to 60 mins by LC-MS/MS analysis; format: ADME, Microsome; conditions: read-out: CLH
[21] = Metabolic stability in human plasma assessed as half life at 100 uM measured after 60 mins by LC-MS/MS analysis; format: ADME, cell-free
[22] = Metabolic stability in human plasma assessed as parent compound remaining at 100 uM measured after 60 mins by LC-MS/MS analysis; format: ADME, cell-free; conditions: read-out: Stabilty
[23] = biological target: Cytochrome P450 3A4 (Homo sapiens, UniProt P08684); assay: Inhibition of CYP3A4 in human liver microsome incubated for 10 mins in the presence of NADPH by LC-MS/MS analysis; format: ADME, microsomes
Chain of Cytochrome P450 3A4 (P08684 whole entry): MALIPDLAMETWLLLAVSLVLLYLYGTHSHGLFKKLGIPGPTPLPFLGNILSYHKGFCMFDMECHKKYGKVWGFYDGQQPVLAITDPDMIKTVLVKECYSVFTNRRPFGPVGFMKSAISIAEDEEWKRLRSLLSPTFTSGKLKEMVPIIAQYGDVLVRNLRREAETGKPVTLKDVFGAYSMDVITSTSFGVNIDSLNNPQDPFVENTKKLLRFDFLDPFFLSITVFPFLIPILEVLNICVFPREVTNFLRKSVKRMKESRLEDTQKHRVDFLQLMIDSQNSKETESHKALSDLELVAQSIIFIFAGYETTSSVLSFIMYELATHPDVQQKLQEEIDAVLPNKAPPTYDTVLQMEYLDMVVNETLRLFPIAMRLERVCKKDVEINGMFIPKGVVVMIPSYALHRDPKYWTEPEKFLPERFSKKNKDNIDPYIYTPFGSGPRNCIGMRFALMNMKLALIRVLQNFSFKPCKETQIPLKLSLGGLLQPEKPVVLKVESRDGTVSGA

[24] = biological target: T2, Lanosterol 14-alpha demethylase; assay: Inhibition of Candida albicans CYP51 assessed as eburicol level at 0.015 ug/ml measured after 18 hrs by GC-MS analysis relative to control; set-up: scale not given: the % may be the effect or the level left; conditions: at 0.015 µg/mL
[25] = biological target: Cytochrome P450 2C19 (Homo sapiens, UniProt P33261); assay: Inhibition of CYP2C19 in human liver microsome incubated for 10 mins in the presence of NADPH by LC-MS/MS analysis; format: ADME, microsomes
Chain of Cytochrome P450 2C19 (P33261 whole entry): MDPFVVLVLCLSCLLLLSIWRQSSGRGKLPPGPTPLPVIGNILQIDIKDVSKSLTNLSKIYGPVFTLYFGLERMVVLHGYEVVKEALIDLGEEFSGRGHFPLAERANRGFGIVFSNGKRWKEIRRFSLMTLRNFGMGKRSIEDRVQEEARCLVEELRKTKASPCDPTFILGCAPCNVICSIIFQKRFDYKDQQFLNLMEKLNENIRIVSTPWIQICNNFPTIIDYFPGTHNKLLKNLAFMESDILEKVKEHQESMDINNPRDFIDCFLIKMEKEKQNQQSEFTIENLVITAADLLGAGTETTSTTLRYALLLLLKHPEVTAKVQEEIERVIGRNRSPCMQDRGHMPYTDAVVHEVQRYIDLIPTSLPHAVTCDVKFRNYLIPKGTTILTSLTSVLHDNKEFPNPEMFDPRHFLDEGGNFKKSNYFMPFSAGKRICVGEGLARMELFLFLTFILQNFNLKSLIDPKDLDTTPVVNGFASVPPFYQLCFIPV

[26] = biological target: T2, Lanosterol 14-alpha demethylase; assay: Inhibition of Candida albicans CYP51 assessed as 14alpha-methylergosta-8,24(28)-dien3beta-6alpha-diol level at 0.015 ug/ml measured after 18 hrs by GC-MS analysis relative to control; set-up: scale not given: the % may be the effect or the level left; conditions: at 0.015 µg/mL
[27] = biological target: Cytochrome P450 2C9 (Homo sapiens, UniProt P11712); assay: Inhibition of CYP2C9 in human liver microsome incubated for 10 mins in the presence of NADPH by LC-MS/MS analysis; format: ADME, microsomes
Chain of Cytochrome P450 2C9 (P11712 whole entry): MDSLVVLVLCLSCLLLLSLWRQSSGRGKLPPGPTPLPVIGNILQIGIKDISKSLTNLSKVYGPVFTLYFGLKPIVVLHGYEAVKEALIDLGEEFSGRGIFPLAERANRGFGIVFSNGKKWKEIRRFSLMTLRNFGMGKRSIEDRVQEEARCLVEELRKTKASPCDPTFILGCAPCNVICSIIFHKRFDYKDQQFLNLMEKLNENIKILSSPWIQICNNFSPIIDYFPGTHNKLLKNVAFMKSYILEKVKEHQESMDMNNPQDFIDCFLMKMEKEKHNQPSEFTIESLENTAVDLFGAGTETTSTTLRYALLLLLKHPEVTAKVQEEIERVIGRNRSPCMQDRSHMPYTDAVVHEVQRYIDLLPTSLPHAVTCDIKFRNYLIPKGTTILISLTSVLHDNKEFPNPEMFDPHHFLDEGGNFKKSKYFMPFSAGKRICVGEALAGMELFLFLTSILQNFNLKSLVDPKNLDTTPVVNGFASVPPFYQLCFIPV

[28] = Metabolic stability in human liver microsomes assessed as compound remaining at 100 uM measured after 60 mins in the presence of NADPH by LC-MS/MS analysis; format: ADME, Microsome; conditions: read-out: Stabilty
[29] = biological target: T2, Lanosterol 14-alpha demethylase; assay: Inhibition of Candida albicans CYP51 assessed as ergosterol level at 0.015 ug/ml measured after 18 hrs by GC-MS analysis relative to control; set-up: scale not given: the % may be the effect or the level left; conditions: at 0.015 µg/mL

SMILES | MIC [1] [µg/mL] | MIC [2] [µg/mL] | MIC [3] [µg/mL] | MIC [5] [µg/mL] | MIC [6] [µg/mL] | MIC [7] [µg/mL] | MIC [8] [µg/mL] | MIC [9] [µg/mL] | MIC [10] [µg/mL] | MIC [11] [µg/mL] | other results
CC[C@H](C)[C@@H](Cn1ccnc1)NC(=O)c1ccc(-c2ccccc2)cc1F | 1 (≈ 2.74 µM) | < 0.03 | < 0.03 | 2 (≈ 5.47 µM) |  |  |  |  |  |  | half-life at 100 µM [4]: 3.6 min
Fc1ccccc1-c1ccc(C2=NC(Cn3cncn3)(c3ccc(Cl)cc3)CO2)cc1 (stereo not given) |  |  | < 0.03 | > 64 | 0.06 (≈ 0.139 µM) | < 0.03 | 0.25 (≈ 0.578 µM) | > 64 | 0.25 (≈ 0.578 µM) | 4 (≈ 9.24 µM) | 
O=C(c1ccc(-c2ccccc2)cc1)N1CCC[C@@H]1Cn1ccnc1 | > 64 | > 64 | > 64 | > 64 |  |  |  |  |  |  | 
Fc1cccc(-c2ccc(C3=NC(Cn4cncn4)(c4ccc(Cl)cc4)CO3)cc2)c1 (stereo not given) |  |  | < 0.03 | > 64 | 0.06 (≈ 0.139 µM) | < 0.03 | 0.25 (≈ 0.578 µM) | > 64 | 0.25 (≈ 0.578 µM) | 4 (≈ 9.24 µM) | 
c1ccc(-c2ccc(C3=NC(Cn4ccnc4)(c4ccccc4)CO3)cc2)cc1 (stereo not given) |  |  | < 0.125 | 1 (≈ 2.64 µM) | < 0.125 | < 0.125 |  |  |  |  | MIC [12]: 32 µg/mL (≈ 84.3 µM); half-life at 100 µM [4]: 106 min
Fc1cccc(-c2ccc(C3=NC(Cn4cncn4)(c4cccc(F)c4)CO3)cc2)c1 (stereo not given) |  |  | 0.06 (≈ 0.144 µM) | > 64 | 0.25 (≈ 0.6 µM) | 0.06 (≈ 0.144 µM) | > 64 | > 64 | > 64 | > 64 | 
Fc1ccc(C2(Cn3cncn3)COC(c3ccc(-c4ccccc4F)cc3)=N2)c(F)c1 (stereo not given) |  |  | < 0.03 | > 64 | 0.06 (≈ 0.138 µM) | 0.06 (≈ 0.138 µM) | 0.5 (≈ 1.15 µM) | > 64 | 0.25 (≈ 0.575 µM) | 4 (≈ 9.21 µM) | 
c1ccc(-c2ccc(C3=N[C@@H](Cn4ccnc4)CO3)cc2)cc1 | > 64 | 8 (≈ 26.4 µM) | 1 (≈ 3.3 µM) | 1 (≈ 3.3 µM) |  |  |  |  |  |  | half-life at 100 µM [4]: 23.2 min
c1ccc(-c2ccc(C3=N[C@H](Cn4ccnc4)CO3)cc2)cc1 | > 64 | > 64 | > 64 | > 64 |  |  |  |  |  |  | 
O=C(NC(Cn1ccnc1)C1COC1)c1ccc(-c2ccccc2)cc1 (stereo not given) | > 64 | > 64 | 8 (≈ 23 µM) | > 64 |  |  |  |  |  |  | 
O=C(c1ccc(-c2ccccc2)cc1)N1CCC[C@H]1Cn1ccnc1 | > 64 | 32 (≈ 96.6 µM) | 16 (≈ 48.3 µM) | 8 (≈ 24.1 µM) |  |  |  |  |  |  | 
Fc1cccc(C2(Cn3cncn3)COC(c3ccc(-c4ccccc4F)cc3)=N2)c1 (stereo not given) |  |  | 0.06 (≈ 0.144 µM) | > 64 | 0.25 (≈ 0.6 µM) | 0.06 (≈ 0.144 µM) | > 64 | > 64 | > 64 | > 64 | 
Fc1ccc(C2(Cn3cncn3)COC(c3ccc(-c4cccc(F)c4)cc3)=N2)cc1 (stereo not given) |  |  | < 0.03 | > 64 | 0.06 (≈ 0.144 µM) | < 0.03 | 0.5 (≈ 1.2 µM) | > 64 | 0.25 (≈ 0.6 µM) | 8 (≈ 19.2 µM) | Stabilty [13]: 115.8%; IC50 [14]: 21.2 µM; IC50 [15]: 40.1 µM; remaining at 1 h, 100 µM [16]: 79.9%; CLH [17]: 1.27 mL/h/kg; Activity [18]: 18.96%; Activity [19]: 1.73%; microsomal CLint at 100 µM [20]: 23.5 µL/min/mg; half-life at 100 µM [21]: > 288 min; remaining at 1 h, 100 µM [22]: 98.7%; IC50 [23]: 15.2 µM; Activity [24]: 7.04%; IC50 [25]: 1.3 µM; Activity [26]: 34.14%; IC50 [27]: 3.8 µM; remaining at 1 h, 100 µM [28]: 47.1%; half-life at 100 µM [4]: 59.1 min; Activity [29]: 35.8%
Fc1cccc(-c2ccc(C3=NC(Cn4cncn4)(c4ccc(F)cc4F)CO3)cc2)c1 (stereo not given) |  |  | < 0.03 | > 64 | 0.06 (≈ 0.138 µM) | 0.06 (≈ 0.138 µM) | 0.5 (≈ 1.15 µM) | > 64 | 0.25 (≈ 0.575 µM) | > 64 | 
CCC(C)n1ncn(-c2ccc(N3CCN(c4ccc(OCC5COC(Cn6cncn6)(c6ccc(Cl)cc6Cl)O5)cc4)CC3)cc2)c1=O (stereo not given) [ITRACONAZOLE] | < 0.125 | < 0.125 | < 0.03 | < 0.125 | < 0.125 | < 0.125 |  |  | < 0.125 | < 0.125 | MIC [12]: < 0.125 µg/mL
